Experimental findings from US11753407B2, “Compounds for treating spinal muscular atrophy” (PTC Therapeutics, Inc., priority 2012, dated 2023) are described below.

Molecules are shown by their SMILES.

For data set [1], the system named is SMN2 minigene mRNA (SMN2-A minigene) in HEK293H cells. The data set can be described thus: SMN2 minigene mRNA splicing RT-qPCR assay in cultured cells. The data set is classed as cell-based, human. Conditions: Homo sapiens, HEK293-H; concentration increasing full length SMN2 mRNA 1.5-fold relative to vehicle-treated cells; HEK293H cells with SMN2-A minigene, 24 hours, 7-point concentration data; read-out: EC1.5x for production of full length SMN2 mRNA. The gist of the method:
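Potency reflects the concentration that lifts full-length SMN2 minigene mRNA 1.5-fold above vehicle in stably transfected HEK293H cells after 24 h of treatment. Transcript abundance came from RT-qPCR as (1+E)^−Ct, normalized to GAPDH; endogenous SMN1/SMN2 are not detected.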

In data set [2] the test system is Smn protein in SMA patient fibroblast cells (GM03813). The data set can be described thus: Smn protein assay in cultured cells (SMN HTRF). Type of data set: cell-based, human. The note with it: SMA patient fibroblast cells, 48 hours; for maximum fold (Fold) increase of Smn protein: 7-point concentration data, fold relative to vehicle control; for EC1.5x for Smn protein expression: 7-point concentration curve, SMN HTRF, concentration producing 1.5 times Smn protein vs DMSO vehicle control. The gist of the method: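 Smn protein abundance in treated SMA fibroblasts was measured by HTRF after 48 h compound exposure. The reported EC1.5× is the concentration producing 1.5 times vehicle Smn levels.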

`O=c1cc(-c2ccc([N+](=O)[O-])cc2)nc2ccc(N3CCNCC3)cn12` [Compound 47, 2-(4-nitrophenyl)-7-(piperazin-1-yl)-4H-pyrido[1,2-a]pyrimidin-4-one] gave a melting point of 237 to 242 °C. For the same compound, the EC (1.5-fold increase) in data set [1] is 1 to 3 µM. The “maximum fold (Fold) increase of Smn protein” value (“maximum fold (Fold) increase” for short) in data set [2] is “*** (a fold increase between >1.35 and ≤1.5 is indicated by three stars (***))”.
The compound `Cc1cn2cc(-c3ccc4nc(C5CCNCC5)cc(=O)n4c3)cc(F)c2n1` [Compound 410, 7-(8-fluoro-2-methylimidazo[1,2-a]pyridin-6-yl)-2-(piperidin-4-yl)-4H-pyrido[1,2-a]pyrimidin-4-one] gave a melting point of 295 to 298 °C. For the same compound, in data set [1], the EC (1.5-fold increase) was less than 0.1 µM. Further, in data set [2], the “EC1.5x for Smn protein expression” value is given as “**** (an EC1.5x≤0.3 μM is indicated by four stars (****))” and the “maximum fold (Fold) increase” value is “***** (a fold increase >1.65 is indicated by five stars (*****))”.
The matching figures for `Cc1cc(-c2cc(=O)n3cc(C4CCN(C)CC4)ccc3n2)cc2cn(C)nc12` [Compound 752, 2-(2,7-dimethyl-2H-indazol-5-yl)-7-(1-methylpiperidin-4-yl)-4H-pyrido[1,2-a]pyrimidin-4-one]: 208 to 210 °C, less than 0.1 µM, “**** (an EC1.5x≤0.3 μM is indicated by four stars (****))” and “***** (a fold increase >1.65 is indicated by five stars (*****))”.
On to `COc1ccc(-c2cc(=O)n3cc(N4CCNCC4)ccc3n2)c(OC)c1` [Compound 89, 2-(2,4-dimethoxyphenyl)-7-(piperazin-1-yl)-4H-pyrido[1,2-a]pyrimidin-4-one], for which the melting point lay in the range of 171 to 173 °C. In addition, the EC (1.5-fold increase) in data set [1] was in the range of 1 to 3 µM. Also, the “maximum fold (Fold) increase” value in data set [2] was “*** (a fold increase between >1.35 and ≤1.5 is indicated by three stars (***))”.
In the case of `Cc1cn2nc(-c3cc(=O)n4cc(N5CCNC(C)(C)C5)ccc4n3)cc2c(C)n1` [Compound 340, 7-(3,3-dimethylpiperazin-1-yl)-2-(4,6-dimethylpyrazolo[1,5-a]pyrazin-2-yl)-4H-pyrido[1,2-a]pyrimidin-4-one], the melting point lay within 195 to 197 °C. Besides, the EC (1.5-fold increase) in data set [1] is less than 0.1 µM. Further, in data set [2], the “EC1.5x for Smn protein expression” value is “**** (an EC1.5x≤0.3 μM is indicated by four stars (****))” and the “maximum fold (Fold) increase” value is “***** (a fold increase >1.65 is indicated by five stars (*****))”.
For the compound `Cc1cn2cc(-c3cc(=O)n4cc(N5C[C@@H](C)N[C@@H](C)C5)ccc4n3)cc(Cl)c2n1` [Compound 288, 2-(8-chloro-2-methylimidazo[1,2-a]pyridin-6-yl)-7-[(3R,5S)-3,5-dimethylpiperazin-1-yl]-4H-pyrido[1,2-a]pyrimidin-4-one], the melting point was 289 to 295 °C. Moreover, the EC (1.5-fold increase) in data set [1] was less than 0.1 µM. Further, in data set [2], the “EC1.5x for Smn protein expression” value is reported as “**** (an EC1.5x≤0.3 μM is indicated by four stars (****))” and the “maximum fold (Fold) increase” value was “***** (a fold increase >1.65 is indicated by five stars (*****))”.
As for `CCc1cc(C2=CCNCC2)cn2c(=O)cc(-c3ccc(OC)c(OC)c3)nc12` [Compound 408, 2-(3,4-dimethoxyphenyl)-9-ethyl-7-(1,2,3,6-tetrahydropyridin-4-yl)-4H-pyrido[1,2-a]pyrimidin-4-one], the melting point is 171 to 177 °C. Also, the EC (1.5-fold increase) in data set [1] was less than 0.1 µM. In addition, the “maximum fold (Fold) increase” value in data set [2] was “** (a fold increase between >1.2 and ≤1.35 is indicated by two stars (**))”.
The compound `CCN1CCN(c2ccc3cc(-c4ccc5nc(C)oc5c4)cc(=O)n3c2)C[C@@H]1C` [Compound 324, 7-[(3S)-4-ethyl-3-methylpiperazin-1-yl]-2-(2-methyl-1,3-benzoxazol-6-yl)-4H-quinolizin-4-one] had a melting point of 288 to 290 °C. Further, the EC (1.5-fold increase) in data set [1] is 0.3 to 1 µM. In data set [2], the “maximum fold (Fold) increase” value was “*** (a fold increase between >1.35 and ≤1.5 is indicated by three stars (***))”.
As to `Cc1nc2ccc(-c3cc(=O)n4cc(N5CCN6CCC[C@H]6C5)ccc4n3)cc2s1` [Compound 255, 7-[(8aS)-hexahydropyrrolo[1,2-a]pyrazin-2(1H)-yl]-2-(2-methyl-1,3-benzothiazol-6-yl)-4H-pyrido[1,2-a]pyrimidin-4-one], the melting point was in the range of 250 to 260 °C. Further, the EC (1.5-fold increase) in data set [1] fell in the range of 0.3 to 1 µM. Besides, in data set [2], the “maximum fold (Fold) increase” value is “** (a fold increase between >1.2 and ≤1.35 is indicated by two stars (**))”.
In turn, `CCc1nc2ccc(-c3cc(=O)n4cc(N5CCNCC5)ccc4n3)cc2o1` [Compound 265, 2-(2-ethyl-1,3-benzoxazol-6-yl)-7-(piperazin-1-yl)-4H-pyrido[1,2-a]pyrimidin-4-one] displayed a melting point of 170 to 175 °C. Besides, the EC (1.5-fold increase) in data set [1] fell in the range of 1 to 3 µM. For the same compound, the “maximum fold (Fold) increase” value in data set [2] is “*** (a fold increase between >1.35 and ≤1.5 is indicated by three stars (***))”.
`CCN1CCC(c2ccc3nc(-c4cc(Cl)c5nc(C)cn5c4)cc(=O)n3c2)CC1` [Compound 518, 2-(8-chloro-2-methylimidazo[1,2-a]pyridin-6-yl)-7-(1-ethylpiperidin-4-yl)-4H-pyrido[1,2-a]pyrimidin-4-one] returned a melting point of 240 to 246 °C. The EC (1.5-fold increase) in data set [1] was less than 0.1 µM. Besides, in data set [2], the “EC1.5x for Smn protein expression” value is recorded as “**** (an EC1.5x≤0.3 μM is indicated by four stars (****))”; the “maximum fold (Fold) increase” value was “**** (a fold increase between >1.5 and ≤1.65 is indicated by four stars (****))”.
The compound `Cc1cn2cc(-c3cc(=O)n4cc(C5CCN(C(C)C)CC5)ccc4n3)ccc2n1` [Compound 554, 2-(2-methylimidazo[1,2-a]pyridin-6-yl)-7-[1-(propan-2-yl)piperidin-4-yl]-4H-pyrido[1,2-a]pyrimidin-4-one] showed a melting point of 218 to 220 °C. Besides, in data set [1], the EC (1.5-fold increase) lay within 0.1 to 0.3 µM. Moreover, in data set [2], the “EC1.5x for Smn protein expression” value is given as “**** (an EC1.5x≤0.3 μM is indicated by four stars (****))” and the “maximum fold (Fold) increase” value is listed as “***** (a fold increase >1.65 is indicated by five stars (*****))”.
For the compound `CCc1cc(-c2cc(=O)n3cc(N4CCN(CCO)[C@@H](C)C4)ccc3n2)cn2cc(C)nc12` [Compound 651, 2-(8-ethyl-2-methylimidazo[1,2-a]pyridin-6-yl)-7-[(3S)-4-(2-hydroxyethyl)-3-methylpiperazin-1-yl]-4H-pyrido[1,2-a]pyrimidin-4-one], the melting point was 220 to 223 °C. Further, in data set [1], the EC (1.5-fold increase) was less than 0.1 µM. For the same compound, in data set [2], the “EC1.5x for Smn protein expression” value is listed as “**** (an EC1.5x≤0.3 μM is indicated by four stars (****))” and the “maximum fold (Fold) increase” value is “***** (a fold increase >1.65 is indicated by five stars (*****))”.
As to `Cc1nc2cc(-c3cc(=O)n4cc(N5CCC(N(C)C)CC5)ccc4n3)ccc2s1` [Compound 347, 7-[4-(dimethylamino)piperidin-1-yl]-2-(2-methyl-1,3-benzothiazol-5-yl)-4H-pyrido[1,2-a]pyrimidin-4-one], the melting point is 218 to 220 °C. Besides, the EC (1.5-fold increase) in data set [1] is less than 0.1 µM. The “maximum fold (Fold) increase” value in data set [2] was “*** (a fold increase between >1.35 and ≤1.5 is indicated by three stars (***))”.
